In brackets after ≈: the same amount, converted by molar mass.
Key:
Pseudomonas aeruginosa [1] = assay: Antibacterial activity against blaVIM-2-positive Pseudomonas aeruginosa by CLSI Etest method; format: functional
Pseudomonas aeruginosa [2] = assay: Antibacterial activity against blaVIM-2-positive Pseudomonas aeruginosa by CLSI broth microdilution method; format: functional

MIC (Pseudomonas aeruginosa [1]) [µg/mL] | SMILES | MIC (Pseudomonas aeruginosa [2]) [µg/mL]
≥ 128 | C[C@@H](O)[C@H]1C(=O)N2C(C(=O)O)=C(SCCNC=N)C[C@H]12 [IMIPENEM ANHYDROUS] | 
 | C[C@@H](O)[C@H]1C(=O)N2C(C(=O)O)=C(S[C@@H]3CN[C@H](C(=O)N(C)C)C3)[C@H](C)[C@H]12 [MEROPENEM] | 32 (≈ 83.4 µM)
